Reference: ChEMBL document CHEMBL4513137, “CO-ADD screening of University of Manchester (UK) compounds”
Converted amounts (≈) assume the structure as drawn.

Key:
[1] = system: Staphylococcus aureus; experiment: microbe, parasite or virus in culture; conditions: ATCC 43300, 18 h, ASSAY_TEST Inhibition of Bacterial Growth, detection method Absorption (OD600), MEDIA CAMHB, plate type 384well, NBS, CORNING #3640
Description: Antibacterial activity against Staphylococcus aureus MRSA ATCC 43300 (CO-ADD:GP_020); MIC in CAMBH media, using NBS plates, by OD(600)

[2] = system: Acinetobacter baumannii; experiment: microbe, parasite or virus in culture; conditions: ATCC 19606, 18 h, ASSAY_TEST Inhibition of Bacterial Growth, detection method Absorption (OD600), MEDIA CAMHB, plate type 384well, NBS, CORNING #3640
Description: Antibacterial activity against Acinetobacter baumannii ATCC 19606 (CO-ADD:GN_034); MIC in CAMBH media using NBS plates, by OD600

[3] = system: Candida albicans; experiment: microbe, parasite or virus in culture; conditions: ATCC 90028, ASSAY_TEST Inhibition of Fungal Growth, detection method Absorption (OD530), plate type 384well, NBS, CORNING #3640
Description: Antifungal activity against Candida albicans ATCC 90028 (CO-ADD:FG_001); MIC in YNB media using NBS plates, by OD630

[4] = system: Escherichia coli; experiment: microbe, parasite or virus in culture; conditions: ATCC 25922, 18 h, ASSAY_TEST Inhibition of Bacterial Growth, detection method Absorption (OD600), MEDIA CAMHB, plate type 384well, NBS, CORNING #3640
Description: Antibacterial activity against Escherichia coli ATCC 25922 (CO-ADD:GN_001); MIC in CAMBH media using NBS plates, by OD(600)

[5] = system: HEK293; experiment: cells; type: functional; conditions: Homo sapiens, ATCC CRL1573, HEK293; ASSAY_TEST Inhibition of Cell Viability; detection method Resazurin; Fluorescence (ex560/em590); MEDIA DMEM with 10% FBS; plate type 384well; TC; CORNING #3712; time 18 hr
[6] = system: Klebsiella pneumoniae; experiment: microbe, parasite or virus in culture; conditions: ATCC 700603, 18 h, ASSAY_TEST Inhibition of Bacterial Growth, detection method Absorption (OD600), MEDIA CAMHB, plate type 384well, NBS, CORNING #3640
Description: Antibacterial activity against Klebsiella pneumoniae MDR ATCC 70063 (CO-ADD:GN_003); MIC in CAMBH media using NBS plates, by OD(600)

[7] = system: Pseudomonas aeruginosa; experiment: microbe, parasite or virus in culture; conditions: ATCC 27853, 18 h, ASSAY_TEST Inhibition of Bacterial Growth, detection method Absorption (OD600), MEDIA CAMHB, plate type 384well, NBS, CORNING #3640
Description: Antibacterial activity against Pseudomonas aeruginosa ATCC 27853 (CO-ADD:GN_042); MIC in CAMBH media using NBS plates, by OD(600)

[8] = system: Cryptococcus neoformans
Description: Antifungal activity against Cryptococcus neoformans H99 ATCC 208821 (CO-ADD:FG_002); MIC in YNB media using NBS plates, by Resazurin OD(600-570)

SMILES | MIC [1] | MIC [2] | MIC [3] | MIC [4] | CC50 [5] | MIC [6] | MIC [7] | MIC [8]
O=[N+]([O-])c1ccccc1-c1ccccc1N(Cc1ccccc1)c1ccccc1 | > 32 µg/mL | > 32 µg/mL | 32 µg/mL (≈ 84.1 µM) | > 32 µg/mL | 8.14 µg/mL (≈ 21.4 µM) | > 32 µg/mL | > 32 µg/mL | > 32 µg/mL
Cc1ccccc1Nc1ccccc1-c1ccccc1[N+](=O)[O-] | 4 µg/mL (≈ 13.1 µM) | > 32 µg/mL | 8 µg/mL (≈ 26.3 µM) | > 32 µg/mL | 1.95 µg/mL (≈ 6.41 µM) | > 32 µg/mL | > 32 µg/mL | 32 µg/mL (≈ 105 µM)
O=[N+]([O-])c1ccccc1-c1ccccc1Nc1ccccc1 | 16 µg/mL (≈ 55.1 µM) | > 32 µg/mL | 8 µg/mL (≈ 27.6 µM) | > 32 µg/mL | 2.15 µg/mL (≈ 7.41 µM) | > 32 µg/mL | > 32 µg/mL | 16 µg/mL (≈ 55.1 µM)
Cc1cc(C)c(Nc2ccccc2-c2ccccc2[N+](=O)[O-])c(C)c1 | > 32 µg/mL | > 32 µg/mL | 16 µg/mL (≈ 48.1 µM) | > 32 µg/mL | 13.1 µg/mL (≈ 39.4 µM) | > 32 µg/mL | > 32 µg/mL | > 32 µg/mL
Cc1cc(C)c(Nc2ccccc2-c2ccc([N+](=O)[O-])cc2[N+](=O)[O-])c(C)c1 | 32 µg/mL (≈ 84.8 µM) | > 32 µg/mL | 4 µg/mL (≈ 10.6 µM) | > 32 µg/mL | 15.7 µg/mL (≈ 41.6 µM) | > 32 µg/mL | > 32 µg/mL | > 32 µg/mL
C=C[C@]1(C)C[C@@H](OC(=O)CO)[C@]2(C)[C@H](C)CC[C@]3(CCC(=O)[C@H]32)[C@@H](C)[C@@H]1O [PLEUROMULIN] | 2 µg/mL (≈ 5.28 µM) | > 32 µg/mL | > 32 µg/mL | > 32 µg/mL | > 32 µg/mL | > 32 µg/mL | > 32 µg/mL | > 32 µg/mL
